For one compound, ED50 results are on record in patent publication US5030733A, “Hydroxy-, alkoxy- and benzyloxy-substituted phospholipids” (Hoechst-Roussel Pharmaceticals Incorporated, priority 1989, dated 1991).

In general, ED50 refers to the dose at which the effect has come halfway, by size or by number of responders.

Molecules are shown by their SMILES.

The experiment has as its system phenyl-para-quinone induced writhing. In words: phenyl-para-quinone (PQW) writhing assay for analgesia. The experiment is classed as in vivo. Particulars: Mus musculus, sc; 50% inhibition of writhing, s.c., mice; read-out: ED50 (subcutaneous dose at which 50% of the phenyl-para-quinone induced writhing is inhibited). From the text: The compounds of the present invention are also useful as analgesic agents due to their ability to alleviate pain in mammals. […] Exptl. Biol. Med., 95, 729 (1957)]. Presented in Table 2 is the analgesic effect of some of the compounds of the invention expressed as either the subcutaneous dose at which 50% of the phenyl-para-quinone induced writhing is inhibited in the animals, i.e., the ED50 value, or as the % decrease in writhing at a give dose.
In general terms: In writhing tests, fewer writhes than in controls are read as antinociception.

For the compound `CCC(=O)O[C@](Cc1ccccc1)(c1ccccc1)[C@H](C)CN(C)C` [Propoxyphene], the ED50 was determined as 3.9 mg/kg.
